Test results as given in paper PMC4884413, “In vivo therapeutic efficacy and pharmacokinetics of colistin sulfate in an experimental model of enterotoxigenic Escherichia coli infection in weaned pigs” (Veterinary Research, 2016).
Where a name gives a salt, the structure may show the parent alone. Read-outs that look alike come from different tables or passages of the source. Bridge positions count the residues as written; N and C are the ends. Square brackets hold non-standard residues; d marks the D form. Peptide text beside a SMILES is read from it. * marks the point of attachment. X1 = CC[C@H](C)CCCCC(=O)*; Dab = NCC[C@H](N)C(=O)O

How the values were obtained:
[1] = system: ETEC: F4; experiment: Fecal ETEC: F4 shedding in challenged weaned pigs; type: in vivo
Method: (§1) Pigs were selected based on the presence of the F4 receptor gene by PCR–RFLP as previously described at 4 days of age. Two trials of 48 pigs were conducted using different doses of CS [100 000 IU/kg (trial 1) or 50 000 IU/kg (trial 2)]. In each trial, four groups of 12 pigs were constituted: challenged treated, challenged untreated, unchallenged treated, and unchallenged untreated.
(§2) For experimental infection of pigs, a nalidixic acid-resistant (Nal^r) variant of ETEC: F4 strain ECL8559 (O149: LT: STa: STb: East1: paa: hemβ: F4), kindly provided by the E. coli Laboratory as described previously, was used. The strain was passaged in a weaned pig to enhance its pathogenicity. A hemolytic, Nal^r colony isolated from the feces of this pig was confirmed to be positive for O149 and the virulence genes F4, STa, STb, LT by multiplex PCR as previously described. This strain, designated ECL8559A, was used in the experimental challenge in this study. After 1-week of acclimatization, 28-day-old pigs in the challenge groups were orally gavaged with 10^9 CFU of the ETEC: F4 strain in 5 mL of trypticase soy broth (Difco Laboratories, Inc., Detroit, MI, USA) following the administration of 10 mL of CaCO3 to neutralize gastric acid.
(§3) Colistin sulfate (Bond & Beaulac Inc., QC, Canada) was administered by oral gavage in 5 mL of water using a polyethylene tube attached to a syringe, at a dose of 100 000 or 50 000 IU/kg in trials 1 and 2 respectively.
Fresh fecal samples were obtained from pigs using pre-weighed sterile rectal swabs (Puritan Medical Products, Guilford, Maine, USA). Bacteriological examination of fecal samples was performed 1 day before and 1, 2, 3, 5, 6, 7, 8, 10, 13, 20, 27, 36 days after oral challenge to evaluate fecal excretion of the challenge ETEC: F4 strain and total E. coli count. […] Rectal swabs were weighed before and after sampling of pigs for individual fecal material quantification.

[2] = system: total E. coli; experiment: Fecal total E. coli shedding in weaned pigs; type: in vivo
Method: as §1, §2, §3
Fresh fecal samples were obtained from pigs using pre-weighed sterile rectal swabs (Puritan Medical Products, Guilford, Maine, USA). Bacteriological examination of fecal samples was performed 1 day before and 1, 2, 3, 5, 6, 7, 8, 10, 13, 20, 27, 36 days after oral challenge to evaluate fecal excretion of the challenge ETEC: F4 strain and total E. coli count. One millilitre of buffered peptone water solution (BPW) was added to each swab and selected dilutions were plated on MacConkey agar and 5% bovine blood agar plates containing nalidixic acid at 50 μg/mL (Sigma-Aldrich Canada Ltd., Oakville, ON, Canada) to count the total E. coli population and the hemolytic challenge ETEC: F4 strain respectively, as previously described. In parallel, 5% bovine blood agar plates containing nalidixic acid at 50 μg/mL and CS at 2 μg/mL and MacConkey agar plates containing CS at 2 μg/mL were used to enumerate the CS resistant hemolytic challenge ETEC: F4 and total E. coli population respectively. The plates were incubated aerobically for 24 h at 37 °C. Isolates recovered from media containing 2 μg/mL of colistin were considered to be putative CS-resistant, as previously described. All samples were processed on the day of collection. Rectal swabs were weighed before and after sampling of pigs for individual fecal material quantification.

[3] = system: ETEC: F4; experiment: Diarrhea score (fecal consistency 0-4) in ETEC: F4 challenged weaned pigs; type: in vivo; details: after 2 days of CS administration (d2), also d3 and d4, both trials, challenged treated vs challenged untreated, p < 0.0001
Description: as §2, with “acid. […]” for “acid.”
After the oral challenge, pigs were observed daily for signs of anorexia, lethargy and diarrhea. The severity of diarrhea was assessed visually by using a fecal consistency scoring (0, normal; 1, soft feces; 2, mild diarrhea; 3, semi liquid diarrhea and 4, liquid diarrhea) as described by Jamalludeen et al.. The rectal body temperature was monitored daily using a digital thermometer.
Ordinal diarrhea scores were analyzed with the Cochran-Mantel-Haenszel test at each time period.

[4] = Body weight of weaned pigs; type: in vivo; details: both trials, challenged treated compared to challenged untreated pigs
Method: Pigs were weighed individually using an electric scale prior to inoculation and at 6, 19 and 35 days after beginning CS treatment.
Bacterial counts and CS plasma concentrations were log10 transformed prior to data analysis to normalize distributions. Total E. coli counts, ETEC: F4 counts, rectal temperature, and body weight were analyzed with repeated-measures ANOVA, with time as a within-subject factor and group as the between-subject factor. A priori contrasts were performed to compare group means at different time periods and to compare pre- and post-infection means in each treatment. For these multiple comparisons, the alpha level was adjusted downward using the Benjamini-Hochberg sequential procedure. A similar procedure was used to analyze CS plasma concentration to determine effect of ETEC: F4 oral challenge on CS intestinal absorption in pigs.

[5] = CS plasma concentrations by HPLC-MS/MS after oral administration; type: in vivo, pigs; details: both trials
Method: as §3
Blood samples (3 mL) were collected using potassium EDTA tubes, from the jugular vein of eight pigs in each treated group, challenged or not of the two trials, at 0.5, 12, 24 and 48 h after the last CS oral administration on day 5.
Plasma was separated by centrifugation at 3000 g for 10 min and stored at −20 °C prior to analysis. These samples were used to determine CS plasma concentrations by high performance HPLC–MS/MS, in order to determine the slope of the terminal phase (λz). The λz was calculated as the negative of the slope of the log-linear regression of the natural logarithm concentration–time curve during the terminal phase. The λz is an important parameter used to determine CS elimination half-life (T1/2), which is an index of drug persistence in the body. Bioanalyses and pharmacokinetic analyses were performed as previously described. The quantification of CS was based on the peak area ratio of the analyte with the internal standard. A calibration curve was used for determining the concentration of CS in all unknown samples by comparing the peak area ratio of the unknown samples to a set of standard samples of known concentration. […]

[6] = system: E. coli K99; details: CS 300 mg/kg of diet, 7 or 14 days, weanling pigs challenged with E. coli K99; cited from earlier work
[7] = intramuscular (IM), pigs, cited from earlier work
Description: In our study, regardless of the dose, CS treatment led to a decrease of nearly 4 log cfu/g in fecal shedding of ETEC: F4 and total E. coli, but only during the treatment period. […] In our study, the effect of CS on the decrease of ETEC: F4 and total E. ...

Compound: CC[C@H](C)CCCCC(=O)N[C@@H](CCN)C(=O)N[C@H](C(=O)N[C@@H](CCN)C(=O)N[C@H]1CCNC(=O)[C@H]([C@@H](C)O)NC(=O)[C@H](CCN)NC(=O)[C@H](CCN)NC(=O)[C@H](CC(C)C)NC(=O)[C@@H](CC(C)C)NC(=O)[C@H](CCN)NC1=O)[C@@H](C)O [Colistin sulfate] (X1-[Dab]T[Dab][Dab][Dab][dL]L[Dab][Dab]T; lactam 4-C)
- fecal ETEC: F4 shedding ([1]; both trials (100 000 or 50 000 IU/kg oral, twice daily, 5 days), between d2 and d6, treated vs untreated challenged pigs, p < 0.0001): significant reduction
- levels of ETEC: F4 in feces ([1]; both trials, most pigs, between d4 and d6): dropped below our detection limit
- decrease in fecal shedding of ETEC: F4 ([1]; regardless of the dose, only during the treatment period): ~4 log cfu/g
- fecal total E. coli shedding ([2]; trial 1, 100 000 IU/kg oral twice daily 5 days, d1 to d5, challenged treated vs challenged untreated, p < 0.0001): significant reduction
- fecal total E. coli shedding ([2]; trial 1, 100 000 IU/kg, d2 to d6, unchallenged treated vs unchallenged untreated, p < 0.0001): significant reduction
- fecal total E. coli shedding ([2]; trial 2, 50 000 IU/kg oral twice daily 5 days, d1 to d6, challenged treated vs challenged untreated, p < 0.0007): significant reduction
- fecal total E. coli shedding ([2]; trial 2, 50 000 IU/kg, d2 to d5, unchallenged treated vs unchallenged untreated, p < 0.0001): significant reduction
- diarrhea scores [3]: significantly decreased
- pig weight losses [4]: did not prevent pig weight losses
- plasma concentrations ([5]; 48 h following the last CS administration, LLOQ 1 ng/mL of plasma): below the LLOQ
- CS plasma concentrations, challenged treated compared to unchallenged treated groups ([5]; all sampling times): higher
- reduction of the number of E. coli in cecal digesta [6]: 4.38 log cfu/g
- reduction of the number of E. coli in ileal digesta [6]: 5.30 log cfu/g
- systemic bioavailability ([7]; 2.5 mg/kg bw): 95.94%
- systemic bioavailability ([7]; 5 mg/kg bw): 88.45%
